Assay results: patent US6713511B1, “Fatty acid derivatives” (priority 1998, dated 2004)
Where two headings read alike, the source gives them in different places. Blank lines part the entries; values can stand above or below the compound they belong to.

Experiments:
Type in all cases: in vivo, rat
[1] = tested on: rats with unilateral caudate nucleus (striatum) lesion
Excerpt: One of the major behavioral methods to measure the increase in dopamine activity in the brain is rotational behavior. Dopamine is the neurotransmitter in the striatum. The striatum controls motor movements and motor integration. In the brain there are two striata, in the right and left hemispheres, respectively. Unilateral ablation of a striatum will result in walking in circles, as the intact striatum is still functioning; Ungerstadt, U. et al., Brain Res., 1970, 24: 485-492, created a lesion in one striatum and measured the effect on rotational behavior. Since then, this technique has been used to screen molecules, such as stimulants or potential anti-Parkinson drugs, which induce increase in dopaminergic activity.
Groups of 6 male Sprague-Dawley rats (Charles River Laboratories, Wilmington, Mass.) weighing 100-120 g, were housed 6 per cage in a well-ventilated and air-conditioned room of ambient temperature (22±2° C.) and relative humidity 45%. The rats had access to food (Big Red Laboratory Chow, Agway Inc., Syracuse, N.Y.) and water ad libitum. Light (“Vita Light”, Duro Test Corp., North Bergen, N.J.) was provided between 9 am and 9 pm.
All surgery was performed under anesthesia (sodium pentobarbital, 50 mg/ml, as required). The rats were placed in a Kopf stereotaxic instrument (model #900). Unilateral anodal electrolytic lesions were made with constant current supply (lesion-producing device #58040, Stoelting, Chicago, Ill.). Current (2.0 mV for 10 seconds) was passed through stainless steel insulated wire pe 32, 0.008 inches diameter (“Formax”, Stoelting, Chicago, Ill.), bared only at the tip. […]
Rotational behavior was tested in a rotameter, modified from the design of Ungerstedt et al., 1970. […] The potentiometer (preamplifier 8805 A) measured and recorded the changes in the amount of current which passed through it, resulting from the rotational movements of the rats. […]
Each rat was placed in the rotameter and treated with an i.p. injection of saline or (I) (10 mg/kg) as prepared above. […] The frequency of turning was measured between 30-40 minutes post-injection. […]

[2] = tested on: rats challenged with Ro4-1284; test: Ro4-1284-induced blephrospasm model
Excerpt: This is an involuntary spasm of the orbicular muscles of the eye, causing forceful closure of the eyes. Symptomatically there is a significant increase in the rate of eyelid closures/min. This phenomenon is regarded as a type of dystonia, a decrease in the brain dopamine level being the etiology of this syndrome. Ro4-1284 is a powerful dopamine-depleting agent. In saline-treated animals, Ro4-1284 is able to induce an animal model of benign essential blephrospasm. Groups of rats similar to those described above were treated daily for 14 days with 25 mg/kg (II), i.p., and then were challenged with a dose of 40 mg/kg Ro4-1284, i.p. The results of this test were shown in the following Table.

[3] = tested on: rats with unilateral caudate nucleus (striatum) lesion; test: Rotational behavior in rats with unilateral striatum lesion, testing of (II)
Procedure: Three groups of 12 male Sprague-Dawley rats (Charles River Laboratories, Wilmington, Mass.) weighing 100-150 g, were housed 6 per cage in a well-ventilated and air-conditioned room of ambient temperature (22±2° C.) and relative humidity 45%. The rats had access to food (Big Red Laboratory Chow, Agway Inc., Syracuse, N.Y.) and water ad libitum. Light (“Vita Light”, Duro Test Corp., North Bergen, N.J.) was provided between 9 am and 9 pm. These groups were used for rotational study, the dosage of (II) being 100 mg/kg, i.p.
One group served as a control group (no treatment), a second group was a sham operated group, and a third group was the operated group. All surgery was performed under anesthesia (sodium pentobarbital, 50 mg/ml, as required). The rats were placed in a Kopf stereotaxic instrument (model #900). Unilateral anodal electrolytic lesions were made with constant current supply (lesion-producing device #58040, Stoelting, Chicago, Ill.). Current (2.0 mV for 10 seconds) was passed through stainless steel insulated wire pc 32, 0.008 inches diameter (“Formax”, Stoelting, Chicago, Ill.), bared only at the tip. The coordinates (modified from Konig and Klippel, 1963) for caudate nucleus lesion were: A 8.5, L 2.2, V+1.8. The lesions were made in the left side of the brain. Sham operated animals were treated as lesioned animals, i.e. they were placed in the stereotaxic instrument and an electrode was placed in the brain, but without passing electric current therethrough. After surgery, each rat was placed in an individual cage. Tests were made at day 10 after surgery. At the end of the experiment, each rat was given an overdose of pentobarbital and perfused with saline, followed by 10% formalin. Brains were removed and serial coronal slices were made at 40 micra, using a freezing microtome. Representative slides were stained with Cresyl Violet for verification of the lesion.
Details of the procedure with regard to determination of rotational behavior were substantially as described above for testing (I).

[4] = lesioned rats, 100 mg/kg i.p., day 10 after surgery

crossing of the blood-brain barrier ([1]; rat, in vivo): cross the blood-brain barrier
abnormal behavior (stereotype) ([1]; rat, in vivo, ip, 10 mg/kg): not found
Compound: CC/C=C\C/C=C\C/C=C\CCCCCCCC(=O)N[C@@H](Cc1ccc(O)cc1)C(=O)O [(I), N-(α-linolenoyl)tyrosine]
rate of rotational motion ([1]; lesioned rats, 10 mg/kg i.p., 30-40 minutes post-injection, day 4 after surgery, increased from 4 cycles/minute): 40 cycles/minute

crossing of the blood-brain barrier ([3]; conclusion drawn from the behavioral testing): cross the blood-brain barrier
Compound: CC/C=C\C/C=C\C/C=C\CCCCCCCC(=O)N[C@@H](Cc1ccc(O)cc1)C(=O)OC [(II), N-β-linolenyltyrosine Methyl Ester]
rate of eyelid blinking/min. ([2]; 25 mg/kg (II) i.p. daily for 14 days, then Ro4-1284 40 mg/kg i.p., 30 minutes after Ro4-1284, p < 0.001): 5.00 ± 1.95 min⁻¹
% L [3, 4]: 98%
% R [3, 4]: 2%
L (turns to the left) [3, 4]: 98
L + R [3, 4]: 100
R (turns to the right) [3, 4]: 2

Compound: CCC1(O)CC2c3cc(OC)c(OC)cc3CCN2CC1CC(C)C (centres unmarked) [Ro4-1284, reference compound]
rate of eyelid blinking/min. ([2]; Ro4-1284 40 mg/kg i.p. alone, 30 minutes after treatment with Ro4-1284): 19.08 ± 3.4 min⁻¹
